Measurements reported in US5843449A, “Proteins and novel peptides derived from autoantigen for use in immunotherapy of autoimmune diseases” (Akzo Nobel N.V., priority 1996, dated 1998).
“And” between values parts separate entries of the source, which are not always exact repeats. Equal values may be shown once.

How the values were obtained:
Assay type in all cases: in vivo
[1] = system: Balb/c mice; experiment: Tolerance to arthritis induction or progression after intranasal HC gp-39; details: for arthritis signs: mild (number of animals): mild: score per animal does not exceed 2; for arthritis signs: severe (number of animals): severe: score per animal ≥4; for arthritis onset (day): first signs appear - highest number of animals affected: monitored to day 31
Protocol: (§1) 10 or 50 μg of purified HC gp-39 in a 100 μl volume PPBS (0.5M NaCl, 0.01M sodium phosphate buffer, pH 7.5) mixed 1:1 in incomplete Freunds adjuvant (IFA) was injected subcutaneously in the chest region in 2×4 female Balb/c mice (Harlan CPB, Zeist, The Netherlands) whereas 4 controls were injected with PBS (1:1 in IFA). Mice were examined daily for clinical signs of arthritis. Severity of arthritis was assessed by scoring each paw from 0-3 (according to the article by Glant et al). In short, score 0=no changes, score 1=erythema and swelling, score 2=swelling and appearance of deformities, score 3=immobility due to loss of flexion and extension.
(§2) Twenty eight μg of protein was administered intranasally (2×10 μl) to 10 female Balb/c mice (anesthetized lightly with Enflurance) using a PT45 micro conduit and a Hamilton syringe. Antigen was administered on day -15, -10 and -5 prior to arthritis induction. Controls (n=10) were submitted to the same procedure but received the vehicle (PBS) only (Table 5).
Tolerance to arthritis induction in these same mice was then further monitored until day 31 following sensitization and mice were examined daily for clinical signs. Severity of arthritis was assessed as mentioned above.

[2] = system: Balb/c mice; experiment: Immunological tolerance by intranasal HC gp-39, DTH assay (footpad swelling)
Protocol: as §2
Immunological tolerance was evaluated by measuring delayed type hypersensitivity (DTH) response following sensitization as described above on day 0, using 10 μg of protein. Sensitization on day 0 was followed by an injection of 10 μg HC gp-39 in […] in the left hind footpad on day 8 (challenge). DTH reactions were measured as the increase in footpad ([swelling left (mm×10^-3)-swelling right (mm×10^-3)]/swelling right (mm×10^-3))×100%. The footpad swelling was measured using an in house designed μmeter at 0, 24 and 48 hr after challenge.

[3] = system: Balb/c mice; experiment: Arthritogenicity of HC gp-39 in Balb/c mice; details: for arthritis signs: mild (number of animals) / arthritis signs: none (number of animals) / arthritis signs: severe (number of animals): n = 4; for arthritis signs: mild (number of animals): mild: score per animal does not exceed 2; for arthritis signs: none (number of animals): none: score = 0; for arthritis signs: severe (number of animals): severe: score per animal ≥3
Protocol: as §1

[4] = controls (n = 10), non-tolerized, 10 μg HC gp-39 s.c.
[5] = tolerized (n = 10): 28 μg HC gp-39 intranasal x3, then 10 μg s.c.
[6] = controls (n = 10): PBS intranasal, 10 μg HC gp-39 s.c. day 0, 10 μg footpad challenge day 8
[7] = tolerized (n = 9): 28 μg HC gp-39 intranasal day -15, -10, -5, 10 μg s.c. day 0, 10 μg footpad day 8

Substance: HC gp-39: Human Cartilage glycoprotein 39, purified from culture supernatant of MG63 human osteosarcoma cells; target autoantigen in RA
- arthritis signs: mild (number of animals) [1, 4]: three and 3
- arthritis signs: none (number of animals) ([1]; controls (n = 10), non-tolerized, 10 μg HC gp-39 s.c., no signs: score 0): 0
- arthritis signs: severe (number of animals) [1, 4]: Seven and 7
- arthritis onset (day): first signs appear - highest number of animals affected ([1]; controls (n = 10), non-tolerized, sensitized with 10 μg HC gp-39 s.c.): 13 to 16 days
- arthritis onset (day): first signs appear - highest number of animals affected ([1]; tolerized (n = 10): 28 μg HC gp-39 intranasal day -15, -10, -5, then 10 μg s.c.): 23 to 24 days
- arthritis signs: mild (number of animals) [1, 5]: two and 2
- arthritis signs: severe (number of animals) [1, 5]: Three and 3
- delay of arthritis onset in tolerized animals, hind and fore paws respectively ([1]; tolerized vs non-tolerized, FIG. 1): 7 to 9 days
- DTH response (in words) ([2]; control (non-tolerized) mice injected with HC gp-39 at day 0): strong, antigen-specific DTH response
- DTH, mean % swelling 0 hr [2, 6]: -1.3%
- DTH, mean % swelling 24 hr [2, 6]: 31.4%
- DTH, mean % swelling 48 hr [2, 6]: 38.6%
- arthritis ankle (animals affected, adjacent to site of challenge) [2, 6]: 4 out of 10 and 4/10 and four out of ten
- DTH, mean % swelling 0 hr [2, 7]: -0.05%
- DTH, mean % swelling 24 hr [2, 7]: 3.7%
- DTH, mean % swelling 48 hr [2, 7]: 1.5%
- arthritis ankle (animals affected, adjacent to site of challenge) [2, 7]: did not develop an arthritis and 0/9 and fully protected
- DTH responses upon challenge (in words) ([2]; tolerized by intranasal administration of HC gp-39): completely abrogated
- arthritis signs: mild (number of animals) ([3]; 10 μg s.c. in IFA): One and 1
- arthritis signs: none (number of animals) ([3]; 10 μg s.c. in IFA): 0
- arthritis signs: severe (number of animals) ([3]; 10 μg s.c. in IFA): Three out of 4 and 3
- arthritis signs: mild (number of animals) ([3]; 50 μg s.c. in IFA): 0
- arthritis signs: none (number of animals) ([3]; 50 μg s.c. in IFA): 0
- arthritis signs: severe (number of animals) ([3]; 50 μg s.c. in IFA): all mice and 4
- arthritis onset (day) FP (fore paw), per animal ([3]; 50 μg s.c. in IFA, n = 4 Balb/c mice): 15 to 20 days
- frequency of symmetrical distribution of afflicted joints ([3]; 50 μg s.c. in IFA, followed for 62 days): > 50%
